Laboratory results as given in patent US9963442B2, “Pyridones as herbicides” (E I DU PONT DE NEMOURS AND COMPANY, priority 2014, dated 2018).

Legend:
Type in all cases: in vivo
[1] = system: galium (catchweed bedstraw, Galium aparine); assay: Test A postemergence application; conditions: approx. 10 days
Description: (§1) Seeds of plant species selected from barnyardgrass (Echinochloa crus-galli), kochia (Kochia scoparia), ragweed (common ragweed, Ambrosia elatior), Italian ryegrass (Lolium multiflorum), giant foxtail (Setaria faberii), and pigweed (Amaranthus retroflexus) were planted into a blend of loam soil and sand and treated preemergence with a directed soil spray using test chemicals formulated in a non-phytotoxic solvent mixture which included a surfactant. At the same time, plants selected from these weed species and also wheat (Triticum aestivum), corn (Zea mays), blackgrass (Alopecurus myosuroides), and galium (catchweed bedstraw, Galium aparine) were planted in pots containing the same blend of loam soil and sand and treated with postemergence applications of test chemicals formulated in the same manner. Plants ranged in height from 2 to 10 cm and were in the one- to two-leaf stage for the postemergence treatment. Treated plants and untreated controls were maintained in a greenhouse for approximately 10 days, after which time all treated plants were compared to untreated controls and visually evaluated for injury. Plant response ratings, summarized in Table A, are based on a 0 to 100 scale where 0 is no effect and 100 is complete control. A dash (-) response means no test result.

kochia (Kochia scoparia) [2] = assay: Test A postemergence application; conditions: approx. 10 days
Description: as §1

[3] = system: giant foxtail (Setaria faberii); assay: Test A postemergence application; conditions: approx. 10 days
Description: as §1

[4] = system: pigweed (Amaranthus retroflexus); assay: Test A postemergence application; conditions: approx. 10 days
Description: as §1

corn (Zea mays) = assay: Test A postemergence application; conditions: approx. 10 days
Description: as §1

[5] = system: wheat (Triticum aestivum); assay: Test A postemergence application; conditions: approx. 10 days
Description: as §1

[6] = system: barnyardgrass (Echinochloa crus-galli); assay: Test A postemergence application; conditions: approx. 10 days
Description: as §1

[7] = system: blackgrass (Alopecurus myosuroides); assay: Test A postemergence application; conditions: approx. 10 days
Description: as §1

[8] = system: ragweed (common ragweed, Ambrosia elatior); assay: Test A postemergence application; conditions: approx. 10 days
Description: as §1

[9] = system: Italian ryegrass (Lolium multiflorum); assay: Test A postemergence application; conditions: approx. 10 days
Description: as §1

kochia (Kochia scoparia) [10] = assay: Test A preemergence, directed soil spray; conditions: approx. 10 days
Description: as §1

[11] = system: giant foxtail (Setaria faberii); assay: Test A preemergence, directed soil spray; conditions: approx. 10 days
Description: as §1

[12] = system: pigweed (Amaranthus retroflexus); assay: Test A preemergence, directed soil spray; conditions: approx. 10 days
Description: as §1

[13] = system: barnyardgrass (Echinochloa crus-galli); assay: Test A preemergence, directed soil spray; conditions: approx. 10 days
Description: as §1

[14] = system: ragweed (common ragweed, Ambrosia elatior); assay: Test A preemergence, directed soil spray; conditions: approx. 10 days
Description: as §1

[15] = system: Italian ryegrass (Lolium multiflorum); assay: Test A preemergence, directed soil spray; conditions: approx. 10 days
Description: as §1

[16] = system: sedge, umbrella (small-flower umbrella sedge, Cyperus difformis); assay: Test B flooded paddy test; set-up: key: 0 = no effect, 100 = complete control; conditions: Flood, 250 g ai/ha applied to paddy water at 2-leaf stage; visually evaluated after 13 to 15 days; scale 0 (no effect) to 100 (complete control)
Procedure: (§2) Plant species in the flooded paddy test selected from rice (Oryza sativa), sedge, umbrella (small-flower umbrella sedge, Cyperus difformis), ducksalad (Heteranthera limosa), and barnyardgrass (Echinochloa crus-galli) were grown to the 2-leaf stage for testing. At time of treatment, test pots were flooded to 3 cm above the soil surface, treated by application of test compounds directly to the paddy water, and then maintained at that water depth for the duration of the test. Treated plants and controls were maintained in a greenhouse for 13 to 15 days, after which time all species were compared to controls and visually evaluated. Plant response ratings, summarized in Table B, are based on a scale of 0 to 100 where 0 is no effect and 100 is complete control. A dash (-) response means no test result.

rice (Oryza sativa) = assay: Test B flooded paddy test; set-up: key: 0 = no effect, 100 = complete control; conditions: Flood, 250 g ai/ha applied to paddy water at 2-leaf stage; visually evaluated after 13 to 15 days; scale 0 (no effect) to 100 (complete control)
Procedure: as §2

[17] = system: ducksalad (Heteranthera limosa); assay: Test B flooded paddy test; set-up: key: 0 = no effect, 100 = complete control; conditions: Flood, 250 g ai/ha applied to paddy water at 2-leaf stage; visually evaluated after 13 to 15 days; scale 0 (no effect) to 100 (complete control)
Procedure: as §2

[18] = system: barnyardgrass (Echinochloa crus-galli); assay: Test B flooded paddy test; set-up: key: 0 = no effect, 100 = complete control; conditions: Flood, 250 g ai/ha applied to paddy water at 2-leaf stage; visually evaluated after 13 to 15 days; scale 0 (no effect) to 100 (complete control)
Procedure: as §2

O=c1cccc(Oc2ncc(Cl)cn2)n1-c1cccc(C(F)(F)F)c1 [Compound 2, 6-[(5-chloro-2-pyrimidinyl)oxy]-1-[3-(trifluoromethyl)phenyl]-2(1H)-pyridinone]
Plant response rating (0 to 100 scale, 0 no effect, 100 complete control), Galium ([1]; 125 g ai/ha): 20
Plant response rating (0 to 100 scale, 0 no effect, 100 complete control), Galium ([1]; 500 g ai/ha): 60
Plant response rating (0 to 100 scale, 0 no effect, 100 complete control), Kochia (kochia (Kochia scoparia) [2]; 125 g ai/ha): 30
Plant response rating (0 to 100 scale, 0 no effect, 100 complete control), Kochia (kochia (Kochia scoparia) [2]; 500 g ai/ha): 90
Plant response rating (0 to 100 scale, 0 no effect, 100 complete control), Foxtail, Giant ([3]; 125 g ai/ha): 0
Plant response rating (0 to 100 scale, 0 no effect, 100 complete control), Foxtail, Giant ([3]; 500 g ai/ha): 60
Plant response rating (0 to 100 scale, 0 no effect, 100 complete control), Pigweed ([4]; 125 g ai/ha): 30
Plant response rating (0 to 100 scale, 0 no effect, 100 complete control), Pigweed ([4]; 500 g ai/ha): 80
Plant response rating (0 to 100 scale, 0 no effect, 100 complete control), Corn (corn (Zea mays); 125 g ai/ha): 0
Plant response rating (0 to 100 scale, 0 no effect, 100 complete control), Corn (corn (Zea mays); 500 g ai/ha): 20
Plant response rating (0 to 100 scale, 0 no effect, 100 complete control), Wheat ([5]; 125 g ai/ha): 0
Plant response rating (0 to 100 scale, 0 no effect, 100 complete control), Wheat ([5]; 500 g ai/ha): 20
Plant response rating (0 to 100 scale, 0 no effect, 100 complete control), Barnyardgrass ([6]; 125 g ai/ha): 0
Plant response rating (0 to 100 scale, 0 no effect, 100 complete control), Barnyardgrass ([6]; 500 g ai/ha): 0
Plant response rating (0 to 100 scale, 0 no effect, 100 complete control), Blackgrass ([7]; 125 g ai/ha): 0
Plant response rating (0 to 100 scale, 0 no effect, 100 complete control), Blackgrass ([7]; 500 g ai/ha): 0
Plant response rating (0 to 100 scale, 0 no effect, 100 complete control), Ragweed ([8]; 125 g ai/ha): 0
Plant response rating (0 to 100 scale, 0 no effect, 100 complete control), Ragweed ([8]; 500 g ai/ha): 0
Plant response rating (0 to 100 scale, 0 no effect, 100 complete control), Ryegrass, Italian ([9]; 125 g ai/ha): 0
Plant response rating (0 to 100 scale, 0 no effect, 100 complete control), Ryegrass, Italian ([9]; 500 g ai/ha): 0
Plant response rating (0 to 100 scale, 0 no effect, 100 complete control), Kochia (kochia (Kochia scoparia) [10]; 125 g ai/ha): 0
Plant response rating (0 to 100 scale, 0 no effect, 100 complete control), Kochia (kochia (Kochia scoparia) [10]; 500 g ai/ha): 30
Plant response rating (0 to 100 scale, 0 no effect, 100 complete control), Foxtail, Giant ([11]; 125 g ai/ha): 0
Plant response rating (0 to 100 scale, 0 no effect, 100 complete control), Foxtail, Giant ([11]; 500 g ai/ha): 90
Plant response rating (0 to 100 scale, 0 no effect, 100 complete control), Pigweed ([12]; 125 g ai/ha): 0
Plant response rating (0 to 100 scale, 0 no effect, 100 complete control), Pigweed ([12]; 500 g ai/ha): 20
Plant response rating (0 to 100 scale, 0 no effect, 100 complete control), Barnyardgrass ([13]; 125 g ai/ha): 0
Plant response rating (0 to 100 scale, 0 no effect, 100 complete control), Barnyardgrass ([13]; 500 g ai/ha): 0
Plant response rating (0 to 100 scale, 0 no effect, 100 complete control), Ragweed ([14]; 125 g ai/ha): 0
Plant response rating (0 to 100 scale, 0 no effect, 100 complete control), Ragweed ([14]; 500 g ai/ha): 0
Plant response rating (0 to 100 scale, 0 no effect, 100 complete control), Ryegrass, Italian ([15]; 125 g ai/ha): 0
Plant response rating (0 to 100 scale, 0 no effect, 100 complete control), Ryegrass, Italian ([15]; 500 g ai/ha): 0
Plant response rating, Sedge, Umbrella [16]: 0
Plant response rating, Rice (rice (Oryza sativa)): 0
Plant response rating, Ducksalad [17]: 0
Plant response rating, Barnyardgrass [18]: 0
